Reference: ChEMBL document CHEMBL1201862, “PubChem BioAssay data set” (2004)
Active and inactive are the calls of the source.

Tests used:
[1] = molecular target: Oxytocin receptor (Homo sapiens, UniProt P30559); assay: Fluorescence-based cell-based high throughput dose response assay for agonists of the Oxytocin Receptor (OXTR). [Related pubchem assays: 2435 (Primary screen (OXTR agonists in singlicate)), 434991 (Counterscreen (V1R agonists in triplicate)), 2482 (Summary (OXTR agonists)), 434963 (Confirmation screen (OXTR agonists in triplicate))]; assay type: functional
[2] = viability of uninfected HEp-2 cells – cell-based, HTS, cytotoxicity control for RSV inhibitor project, dose response (AID 2410); assay type: functional; settings: human respiratory syncytial virus
[3] = molecular target: Vasopressin V1a receptor (Homo sapiens, UniProt P37288); assay: Counterscreen for Oxytocin Receptor (OXTR) agonists: Fluorescence-based cell-based high throughput dose response assay to identify agonists of the vasopressin 1 receptor (V1R). [Related pubchem assays: 2435 (Primary screen (OXTR agonists in singlicate)), 434991 (Counterscreen (V1R agonists in triplicate)), 2482 (Summary (OXTR agonists)) …; assay type: functional
[4] = molecular target: T1, Corticotropin-releasing factor receptor 2/Corticotropin-releasing factor-binding protein (Homo sapiens, UniProt P24387+Q13324); assay: activators of CRF receptor 2 with binding protein – uHTS hits, confirmation (AID 602473); assay type: functional; settings: read-out: EC50_Mean
T1 sequence (Q13324 whole entry): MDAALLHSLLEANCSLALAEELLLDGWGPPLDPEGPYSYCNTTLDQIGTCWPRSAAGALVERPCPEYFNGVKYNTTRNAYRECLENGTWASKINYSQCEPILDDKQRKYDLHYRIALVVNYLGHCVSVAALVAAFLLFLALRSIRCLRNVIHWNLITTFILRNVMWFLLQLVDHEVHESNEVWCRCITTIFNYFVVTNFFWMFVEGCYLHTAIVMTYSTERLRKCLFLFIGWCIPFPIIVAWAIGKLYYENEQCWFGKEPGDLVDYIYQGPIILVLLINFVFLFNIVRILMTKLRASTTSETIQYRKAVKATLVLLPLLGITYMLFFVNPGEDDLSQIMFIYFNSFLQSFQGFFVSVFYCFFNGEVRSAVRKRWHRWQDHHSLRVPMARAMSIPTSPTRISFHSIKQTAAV
T1 sequence (P24387 whole entry): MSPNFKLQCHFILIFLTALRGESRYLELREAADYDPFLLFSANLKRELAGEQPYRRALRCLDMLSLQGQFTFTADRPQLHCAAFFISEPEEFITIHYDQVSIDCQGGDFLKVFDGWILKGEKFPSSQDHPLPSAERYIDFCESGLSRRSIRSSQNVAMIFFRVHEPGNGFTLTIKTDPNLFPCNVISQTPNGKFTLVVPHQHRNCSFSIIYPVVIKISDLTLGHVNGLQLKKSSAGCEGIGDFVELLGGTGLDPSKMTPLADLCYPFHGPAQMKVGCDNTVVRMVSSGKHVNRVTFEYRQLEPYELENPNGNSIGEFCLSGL

[5] = viability loss in Vero cells – cytotoxicity control for Vif-APOBEC3G degradation inhibitor project, dose response (AID 1117358); assay type: functional; settings: Vero
[6] = molecular target: Serine/threonine-protein phosphatase PP1-alpha catalytic subunit (Homo sapiens, UniProt P62136); assay: inhibition of protein phosphatase 1 activity – biochemical, fluorescence, dose response (AID 2403);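 also: phosphatase turnover of OMFP into fluorescent 3-O-methylfluorescein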
[7] = molecular target: Nonstructural protein 1 (Influenza A virus, UniProt Q194T2); assay type: functional, Influenza A virus (A/California/07/2009(H1N1))
[8] = molecular target: T2, Serine/threonine-protein phosphatase (Homo sapiens, UniProt Q9BPW0); assay: Counterscreen for inhibitors of PP1: fluorescence-based biochemical high throughput dose response assay to identify inhibitors of Protein Phosphatase 5 (PP5). [Related pubchem assays: 2034 (Summary (PP5 inhibitors)), 1987 (PP5 inhibitors in singlate), 2235 (PP1 inhibitors in singlate)]
T2 sequence (Q9BPW0 whole entry): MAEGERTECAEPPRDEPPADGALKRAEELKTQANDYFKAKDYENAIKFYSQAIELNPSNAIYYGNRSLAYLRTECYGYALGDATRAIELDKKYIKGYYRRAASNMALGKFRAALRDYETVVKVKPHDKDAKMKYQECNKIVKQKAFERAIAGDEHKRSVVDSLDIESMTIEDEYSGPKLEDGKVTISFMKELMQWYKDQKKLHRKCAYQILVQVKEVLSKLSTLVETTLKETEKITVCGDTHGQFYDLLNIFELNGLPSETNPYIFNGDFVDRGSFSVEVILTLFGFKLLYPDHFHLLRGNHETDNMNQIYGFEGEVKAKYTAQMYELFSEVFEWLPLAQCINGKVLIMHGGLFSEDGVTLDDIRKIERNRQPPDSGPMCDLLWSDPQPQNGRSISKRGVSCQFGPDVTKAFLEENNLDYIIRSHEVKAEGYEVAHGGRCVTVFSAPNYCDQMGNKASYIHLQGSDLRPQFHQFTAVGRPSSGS

[9] = Vero E6 cell cytotoxicity, dose response, cytotoxicity control for non-replicating M. tuberculosis project, secondary assay (AID 492998); assay type: functional, VeroE6; settings: Vero C1008
[10] = THP-1 cell cytotoxicity, dose response, cytotoxicity control for non-replicating M. tuberculosis project (AID 489025); assay type: functional
[11] = cells; assay type: functional
[12] = HEK-293T viability loss after treatment – luminescence, T-cell screen hits, cytotoxicity control for TCR NF-kB inhibitor project, dose response (AID 489026); assay type: functional, cell-based;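 also: cells exposed to compound about 14 hours before the viability readout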
[13] = molecular target: G2/mitotic-specific cyclin-B1 (Homo sapiens, UniProt P14635); assay: Counterscreen assay for inhibitors of Wee1 degradation: dose response cell-based assay to identify inhibitors of cyclin B degradation. [Related pubchem assays: 1410, 1321 ]; assay type: functional
[14] = molecular target: Wee1-like protein kinase (Homo sapiens, UniProt P30291); assay: Dose Response Cell-based Assay for Inhibitors of Wee1 Degradation. [Related pubchem assays: 1410, 1321 ]; assay type: functional
[15] = molecular target: T3, Mannose-6-phosphate isomerase (Homo sapiens, UniProt P34949); assay: MPI inhibition at elevated mannose 6-phosphate – biochemical, fluorescence intensity, high mannose 6-phosphate, primary screen (AID 1220)
T3 sequence (P34949 whole entry): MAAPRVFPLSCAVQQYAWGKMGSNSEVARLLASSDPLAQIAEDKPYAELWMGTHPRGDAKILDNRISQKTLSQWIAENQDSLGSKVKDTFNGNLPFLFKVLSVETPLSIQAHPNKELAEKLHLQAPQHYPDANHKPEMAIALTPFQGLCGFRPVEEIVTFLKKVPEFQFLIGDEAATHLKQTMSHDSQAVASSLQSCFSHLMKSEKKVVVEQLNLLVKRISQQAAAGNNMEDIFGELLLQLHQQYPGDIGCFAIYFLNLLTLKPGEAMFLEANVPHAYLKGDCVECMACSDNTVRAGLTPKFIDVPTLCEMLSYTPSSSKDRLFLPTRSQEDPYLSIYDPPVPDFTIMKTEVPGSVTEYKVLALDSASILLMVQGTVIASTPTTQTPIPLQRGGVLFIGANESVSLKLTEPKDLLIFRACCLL

[16] = molecular target: Large T antigen (Simian virus 40, UniProt P03070); assay type: functional, Betapolyomavirus macacae;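 also: Confirmatory-stage PubChem screen for compounds that inhibit SV40 T antigen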
[17] = molecular target: Induced myeloid leukemia cell differentiation protein Mcl-1 (Homo sapiens, UniProt Q07820); assay: blockers of MCL1 binding to BIM peptide – biochemical, fluorescence polarization, BIM-BH3 peptide, 1536-well, dose response (AID 2217)
[18] = molecular target: Bcl-2-like protein 1 (Homo sapiens, UniProt Q07817); assay: blockers of BCLXL peptide binding – biochemical, fluorescence polarization, 1536-well, selectivity assay for MCL1 inhibitor project, dose response (AID 2218)
[19] = molecular target: Procathepsin L (Homo sapiens, UniProt P07711)
[20] = molecular target: T3, Mannose-6-phosphate isomerase; assay: MPI enzyme activity inhibition – biochemical, fluorescence intensity, coupled assay, primary screen (AID 1209)
[21] = molecular target: T4, Histone-lysine N-methyltransferase NSD2 (Homo sapiens, UniProt O96028); assay type: biochemical
T4 sequence (O96028 whole entry): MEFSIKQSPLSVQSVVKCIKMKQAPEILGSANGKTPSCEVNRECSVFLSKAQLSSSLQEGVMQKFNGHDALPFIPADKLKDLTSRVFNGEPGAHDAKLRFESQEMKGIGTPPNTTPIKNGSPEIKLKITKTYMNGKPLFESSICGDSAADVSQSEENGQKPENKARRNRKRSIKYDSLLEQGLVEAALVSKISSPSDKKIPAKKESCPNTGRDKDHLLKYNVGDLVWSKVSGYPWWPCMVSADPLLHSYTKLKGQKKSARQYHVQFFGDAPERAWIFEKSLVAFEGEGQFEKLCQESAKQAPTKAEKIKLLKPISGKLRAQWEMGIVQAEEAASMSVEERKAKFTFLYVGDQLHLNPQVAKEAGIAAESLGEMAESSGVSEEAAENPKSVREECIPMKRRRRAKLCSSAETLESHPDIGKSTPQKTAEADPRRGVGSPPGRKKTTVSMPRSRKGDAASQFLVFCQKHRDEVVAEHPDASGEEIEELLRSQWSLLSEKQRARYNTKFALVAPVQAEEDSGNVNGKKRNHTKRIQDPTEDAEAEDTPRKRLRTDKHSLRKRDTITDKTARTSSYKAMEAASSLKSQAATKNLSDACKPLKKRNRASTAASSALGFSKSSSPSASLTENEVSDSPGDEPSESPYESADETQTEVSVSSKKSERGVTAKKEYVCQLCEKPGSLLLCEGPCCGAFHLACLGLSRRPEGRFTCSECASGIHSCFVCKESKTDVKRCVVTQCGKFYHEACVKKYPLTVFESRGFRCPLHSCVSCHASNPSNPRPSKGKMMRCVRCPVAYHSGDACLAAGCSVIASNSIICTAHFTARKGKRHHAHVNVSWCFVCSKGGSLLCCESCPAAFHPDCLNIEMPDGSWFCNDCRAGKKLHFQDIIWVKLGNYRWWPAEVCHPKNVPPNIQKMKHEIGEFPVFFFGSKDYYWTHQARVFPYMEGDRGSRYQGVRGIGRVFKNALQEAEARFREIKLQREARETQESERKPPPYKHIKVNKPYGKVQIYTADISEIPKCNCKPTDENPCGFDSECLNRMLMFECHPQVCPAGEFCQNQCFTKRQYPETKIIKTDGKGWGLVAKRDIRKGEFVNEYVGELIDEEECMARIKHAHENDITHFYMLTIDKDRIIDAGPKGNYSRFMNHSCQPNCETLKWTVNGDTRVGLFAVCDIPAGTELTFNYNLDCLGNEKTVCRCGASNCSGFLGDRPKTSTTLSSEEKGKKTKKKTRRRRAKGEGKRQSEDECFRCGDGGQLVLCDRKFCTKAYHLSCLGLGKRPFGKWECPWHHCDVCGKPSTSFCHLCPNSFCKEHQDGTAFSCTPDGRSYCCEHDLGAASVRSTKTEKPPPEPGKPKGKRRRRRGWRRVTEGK

[22] = molecular target: Aspartyl aminopeptidase (Plasmodium falciparum 3D7, UniProt Q8I2J3)
[23] = molecular target: T5, Rac GTPase-activating protein 1 (Homo sapiens, UniProt Q9H0H5); assay: blockers of MgcRacGAP-driven Rac1 GTP hydrolysis – biochemical, ADP Hunter fluorescence, primary and confirmatory, confirmation (AID 624330); assay type: functional
T5 sequence (Q9H0H5 whole entry): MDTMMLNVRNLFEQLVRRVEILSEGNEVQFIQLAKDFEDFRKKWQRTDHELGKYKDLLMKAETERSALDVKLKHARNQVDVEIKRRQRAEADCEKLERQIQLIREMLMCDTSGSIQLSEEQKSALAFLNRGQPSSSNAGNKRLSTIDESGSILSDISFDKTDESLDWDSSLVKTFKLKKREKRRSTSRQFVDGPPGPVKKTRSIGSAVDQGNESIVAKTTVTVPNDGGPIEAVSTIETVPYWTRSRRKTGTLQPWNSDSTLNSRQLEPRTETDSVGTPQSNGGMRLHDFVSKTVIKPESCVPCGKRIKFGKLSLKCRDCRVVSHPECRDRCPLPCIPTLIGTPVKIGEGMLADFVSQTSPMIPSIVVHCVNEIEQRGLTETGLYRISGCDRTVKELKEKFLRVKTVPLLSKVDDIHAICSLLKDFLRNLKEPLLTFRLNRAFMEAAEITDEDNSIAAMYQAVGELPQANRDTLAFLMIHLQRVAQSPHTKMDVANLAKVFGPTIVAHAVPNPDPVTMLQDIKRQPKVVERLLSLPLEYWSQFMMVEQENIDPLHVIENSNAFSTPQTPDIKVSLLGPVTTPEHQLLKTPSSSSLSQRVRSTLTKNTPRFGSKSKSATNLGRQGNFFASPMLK

[24] = molecular target: Dual specificity tyrosine-phosphorylation-regulated kinase 1A (Rattus norvegicus, UniProt Q63470); assay type: biochemical, Homo sapiens

Chain of Procathepsin L (P07711 whole entry): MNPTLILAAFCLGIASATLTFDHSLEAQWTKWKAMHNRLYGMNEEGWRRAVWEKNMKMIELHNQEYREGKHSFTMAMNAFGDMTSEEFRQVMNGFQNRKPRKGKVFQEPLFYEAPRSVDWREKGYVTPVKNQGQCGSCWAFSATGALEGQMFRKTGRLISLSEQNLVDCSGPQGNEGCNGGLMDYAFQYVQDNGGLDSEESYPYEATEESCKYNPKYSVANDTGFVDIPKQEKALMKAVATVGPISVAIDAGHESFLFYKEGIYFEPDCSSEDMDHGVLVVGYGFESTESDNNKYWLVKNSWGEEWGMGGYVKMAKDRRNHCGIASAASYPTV
Chain of G2/mitotic-specific cyclin-B1 (P14635 whole entry): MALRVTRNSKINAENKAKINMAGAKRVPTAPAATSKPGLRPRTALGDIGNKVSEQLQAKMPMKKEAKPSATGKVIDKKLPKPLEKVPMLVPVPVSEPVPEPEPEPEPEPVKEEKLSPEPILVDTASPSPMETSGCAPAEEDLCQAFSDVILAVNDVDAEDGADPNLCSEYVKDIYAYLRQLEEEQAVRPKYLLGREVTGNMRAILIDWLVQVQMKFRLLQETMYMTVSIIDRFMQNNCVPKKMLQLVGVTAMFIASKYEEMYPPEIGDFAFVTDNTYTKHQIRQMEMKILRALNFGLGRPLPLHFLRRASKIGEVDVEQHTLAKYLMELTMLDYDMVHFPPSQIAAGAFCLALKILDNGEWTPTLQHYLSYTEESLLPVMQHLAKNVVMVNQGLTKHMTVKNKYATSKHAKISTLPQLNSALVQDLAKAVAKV
Chain of Wee1-like protein kinase (P30291 whole entry): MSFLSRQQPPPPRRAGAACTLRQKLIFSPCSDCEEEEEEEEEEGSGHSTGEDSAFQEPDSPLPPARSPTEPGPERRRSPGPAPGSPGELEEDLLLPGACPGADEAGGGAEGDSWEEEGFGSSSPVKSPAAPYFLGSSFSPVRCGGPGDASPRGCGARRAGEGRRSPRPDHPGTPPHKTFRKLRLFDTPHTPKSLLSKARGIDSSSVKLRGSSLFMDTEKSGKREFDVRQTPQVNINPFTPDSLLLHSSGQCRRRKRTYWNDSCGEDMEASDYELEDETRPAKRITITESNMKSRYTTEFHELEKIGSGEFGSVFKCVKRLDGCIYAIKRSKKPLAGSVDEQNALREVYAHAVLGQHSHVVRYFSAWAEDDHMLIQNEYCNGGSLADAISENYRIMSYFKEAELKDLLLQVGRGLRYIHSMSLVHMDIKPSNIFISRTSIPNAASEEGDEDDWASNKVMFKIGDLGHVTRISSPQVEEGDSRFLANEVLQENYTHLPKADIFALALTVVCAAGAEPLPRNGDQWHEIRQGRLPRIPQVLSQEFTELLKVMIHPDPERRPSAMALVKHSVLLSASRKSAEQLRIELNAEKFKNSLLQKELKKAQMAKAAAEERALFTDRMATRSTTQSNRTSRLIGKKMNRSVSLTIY
Chain of Oxytocin receptor (P30559 whole entry): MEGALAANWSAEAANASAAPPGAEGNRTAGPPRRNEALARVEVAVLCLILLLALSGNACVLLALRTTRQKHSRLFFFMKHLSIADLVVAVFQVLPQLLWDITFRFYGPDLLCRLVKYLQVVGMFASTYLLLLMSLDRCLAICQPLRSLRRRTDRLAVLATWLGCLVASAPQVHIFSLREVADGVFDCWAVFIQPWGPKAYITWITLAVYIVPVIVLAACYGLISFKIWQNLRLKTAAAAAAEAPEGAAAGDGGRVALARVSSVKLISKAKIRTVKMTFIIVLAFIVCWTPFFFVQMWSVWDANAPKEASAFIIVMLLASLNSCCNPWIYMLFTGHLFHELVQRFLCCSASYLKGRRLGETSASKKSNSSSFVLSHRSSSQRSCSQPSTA
Chain of Nonstructural protein 1 (Q194T2 whole entry): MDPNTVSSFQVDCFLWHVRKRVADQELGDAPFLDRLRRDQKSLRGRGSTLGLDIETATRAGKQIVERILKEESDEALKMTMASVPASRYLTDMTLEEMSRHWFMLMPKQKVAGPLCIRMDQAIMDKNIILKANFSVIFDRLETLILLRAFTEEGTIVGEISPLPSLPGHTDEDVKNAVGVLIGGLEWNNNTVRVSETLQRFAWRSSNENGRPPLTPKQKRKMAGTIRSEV
Chain of Vasopressin V1a receptor (P37288 whole entry): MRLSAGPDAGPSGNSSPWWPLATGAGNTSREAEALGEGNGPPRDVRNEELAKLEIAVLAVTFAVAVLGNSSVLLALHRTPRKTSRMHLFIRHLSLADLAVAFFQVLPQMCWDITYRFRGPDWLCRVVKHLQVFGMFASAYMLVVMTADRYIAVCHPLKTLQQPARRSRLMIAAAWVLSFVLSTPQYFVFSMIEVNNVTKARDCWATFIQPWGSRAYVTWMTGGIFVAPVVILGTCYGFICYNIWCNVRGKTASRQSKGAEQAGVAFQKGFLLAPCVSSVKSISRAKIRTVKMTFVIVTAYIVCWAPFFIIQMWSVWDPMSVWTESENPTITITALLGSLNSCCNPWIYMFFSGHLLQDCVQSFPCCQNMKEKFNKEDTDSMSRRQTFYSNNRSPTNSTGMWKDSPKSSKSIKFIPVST
Chain of Bcl-2-like protein 1 (Q07817 whole entry): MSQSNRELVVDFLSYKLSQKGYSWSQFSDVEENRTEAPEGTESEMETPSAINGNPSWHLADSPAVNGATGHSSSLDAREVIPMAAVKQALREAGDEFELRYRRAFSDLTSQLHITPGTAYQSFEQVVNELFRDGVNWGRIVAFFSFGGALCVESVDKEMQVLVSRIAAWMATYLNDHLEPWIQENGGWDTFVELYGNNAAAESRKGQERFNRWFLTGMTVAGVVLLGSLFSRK
Chain of Large T antigen (P03070 whole entry): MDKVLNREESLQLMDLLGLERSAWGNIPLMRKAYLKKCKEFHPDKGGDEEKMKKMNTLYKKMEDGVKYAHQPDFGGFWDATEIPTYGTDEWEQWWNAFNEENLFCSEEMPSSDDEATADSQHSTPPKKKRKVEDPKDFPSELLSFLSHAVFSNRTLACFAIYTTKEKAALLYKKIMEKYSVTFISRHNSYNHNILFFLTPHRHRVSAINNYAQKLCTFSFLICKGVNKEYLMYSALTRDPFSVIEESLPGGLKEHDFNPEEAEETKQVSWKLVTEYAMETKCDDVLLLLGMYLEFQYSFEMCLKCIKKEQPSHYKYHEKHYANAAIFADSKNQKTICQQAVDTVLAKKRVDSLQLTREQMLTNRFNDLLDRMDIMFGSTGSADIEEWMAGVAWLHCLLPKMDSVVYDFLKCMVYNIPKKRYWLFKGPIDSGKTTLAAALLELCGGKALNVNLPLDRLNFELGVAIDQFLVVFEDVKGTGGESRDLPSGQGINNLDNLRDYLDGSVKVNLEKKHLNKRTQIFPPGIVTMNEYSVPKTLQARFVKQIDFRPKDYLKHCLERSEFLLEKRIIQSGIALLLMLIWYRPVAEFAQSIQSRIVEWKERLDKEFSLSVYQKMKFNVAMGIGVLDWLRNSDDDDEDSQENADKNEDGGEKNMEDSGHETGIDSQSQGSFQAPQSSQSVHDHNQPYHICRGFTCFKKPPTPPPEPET
Chain of Aspartyl aminopeptidase (Q8I2J3 whole entry): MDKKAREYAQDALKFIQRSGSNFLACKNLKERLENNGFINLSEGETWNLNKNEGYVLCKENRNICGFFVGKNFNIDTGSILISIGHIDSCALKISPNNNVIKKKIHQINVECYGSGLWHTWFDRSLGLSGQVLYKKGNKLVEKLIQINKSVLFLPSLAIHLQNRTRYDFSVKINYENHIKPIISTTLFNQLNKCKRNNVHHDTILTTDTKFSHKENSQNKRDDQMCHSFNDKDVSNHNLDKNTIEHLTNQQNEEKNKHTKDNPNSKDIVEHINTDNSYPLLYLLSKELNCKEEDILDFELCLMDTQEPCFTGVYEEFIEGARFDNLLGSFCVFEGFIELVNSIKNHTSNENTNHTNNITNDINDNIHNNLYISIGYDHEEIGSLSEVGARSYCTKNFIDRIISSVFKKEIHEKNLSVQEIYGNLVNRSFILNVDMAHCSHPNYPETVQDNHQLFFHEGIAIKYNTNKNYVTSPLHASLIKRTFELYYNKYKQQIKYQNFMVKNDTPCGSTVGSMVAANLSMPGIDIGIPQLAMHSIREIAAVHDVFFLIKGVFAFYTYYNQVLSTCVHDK
Chain of Serine/threonine-protein phosphatase PP1-alpha catalytic subunit (P62136 whole entry): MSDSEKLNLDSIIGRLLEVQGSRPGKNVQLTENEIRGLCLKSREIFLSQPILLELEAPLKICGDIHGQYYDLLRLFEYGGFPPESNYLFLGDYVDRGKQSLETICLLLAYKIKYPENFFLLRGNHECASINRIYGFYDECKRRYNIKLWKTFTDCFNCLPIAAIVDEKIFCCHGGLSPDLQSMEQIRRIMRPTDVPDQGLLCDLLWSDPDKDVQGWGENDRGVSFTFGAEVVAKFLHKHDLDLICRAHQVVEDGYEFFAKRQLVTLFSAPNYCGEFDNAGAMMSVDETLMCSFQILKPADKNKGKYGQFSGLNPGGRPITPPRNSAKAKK
Chain of Induced myeloid leukemia cell differentiation protein Mcl-1 (Q07820 whole entry): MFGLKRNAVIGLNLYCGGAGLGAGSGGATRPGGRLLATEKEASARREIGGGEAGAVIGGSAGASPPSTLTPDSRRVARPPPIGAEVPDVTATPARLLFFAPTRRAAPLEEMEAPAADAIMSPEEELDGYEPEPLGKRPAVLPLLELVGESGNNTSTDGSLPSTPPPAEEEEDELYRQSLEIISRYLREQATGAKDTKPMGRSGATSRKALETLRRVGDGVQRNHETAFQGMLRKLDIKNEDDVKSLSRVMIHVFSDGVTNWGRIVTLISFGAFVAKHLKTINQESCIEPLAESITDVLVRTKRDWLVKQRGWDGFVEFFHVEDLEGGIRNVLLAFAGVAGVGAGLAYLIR

## Cc1[nH]c2ccccc2c1C(=O)CN1C(=O)NC(C)(c2ccc(Cl)cc2Cl)C1=O (centres undefined)
[1]
  EC50: > 29.9 µM (not active)
[2]
  CC50: 13.9 µM (active)
[3]
  EC50: > 29.9 µM (not active)
[4]
  EC50: 7.59 µM (active)
[5]
  CC50: 38.2 µM (active)

## O=C(Nc1nc(-c2ccccn2)cs1)C1CC(=O)N(c2ccc3c(c2)OCCO3)C1 (centres undefined)
[6]
  IC50: 5.98 µM (active)
[7]
  IC50: 13.5 µM (active)
[8]
  IC50: > 67 µM (not active)

## O=C(N=Nc1c(O)[nH]c2ccc(Br)cc12)c1ccccc1-n1cccc1
[9]
  CC50: 4.28 µM (active)
[10]
  CC50: 1.15 µM (active)
[11]
  IC50: > 50 µM (active)
[12]
  IC50: > 80 µM (inactive)
[13]
  EC50: > 49.7 µM (not active)
[14]
  EC50: > 49.7 µM (not active)

## Oc1ccc(C2=Nn3c(nnc3-c3ccco3)SC2)cc1O
[15]
  IC50: > 50 µM (not active)
[16]
  IC50: 3.26 µM (active)
[17]
  IC50: 6.16 µM (active)
[18]
  IC50: 68.7 µM (not active)
[19]
  IC50: > 59.6 µM (not active)
[20]
  IC50: > 50 µM (not active)
[21]
  AC50: 6.4 µM (active)
[22]
  IC50: 1.84 µM (active)
[23]
  IC50: 12.2 µM (active)
[24]
  AC50: 4.01 µM (active)
